Reference: US7405231B2, “Oxidized thioether derivatives” (Hoffmann-La Roche Inc., priority 2004, dated 2008)

Legend:
[1] = biological target: T1, HER2 (Homo sapiens, UniProt P04626); test: Inhibition of HER2 phosphorylation in Calu3 tumor cell line; format: cell-based; settings: Calu3 cells; for percentage of inhibition of phosphorylation compared with the reference compound: 1 μM compound, versus Example 4, p. 88, WO 01/77107; for inhibition at 1 µM: Calu-3, read-out: Percent inhibition of HER2-phosphorylation
T1 construct: endogenous in cells; host or cells: Calu3 tumor cell line
T1 sequence (P04626 23-1255): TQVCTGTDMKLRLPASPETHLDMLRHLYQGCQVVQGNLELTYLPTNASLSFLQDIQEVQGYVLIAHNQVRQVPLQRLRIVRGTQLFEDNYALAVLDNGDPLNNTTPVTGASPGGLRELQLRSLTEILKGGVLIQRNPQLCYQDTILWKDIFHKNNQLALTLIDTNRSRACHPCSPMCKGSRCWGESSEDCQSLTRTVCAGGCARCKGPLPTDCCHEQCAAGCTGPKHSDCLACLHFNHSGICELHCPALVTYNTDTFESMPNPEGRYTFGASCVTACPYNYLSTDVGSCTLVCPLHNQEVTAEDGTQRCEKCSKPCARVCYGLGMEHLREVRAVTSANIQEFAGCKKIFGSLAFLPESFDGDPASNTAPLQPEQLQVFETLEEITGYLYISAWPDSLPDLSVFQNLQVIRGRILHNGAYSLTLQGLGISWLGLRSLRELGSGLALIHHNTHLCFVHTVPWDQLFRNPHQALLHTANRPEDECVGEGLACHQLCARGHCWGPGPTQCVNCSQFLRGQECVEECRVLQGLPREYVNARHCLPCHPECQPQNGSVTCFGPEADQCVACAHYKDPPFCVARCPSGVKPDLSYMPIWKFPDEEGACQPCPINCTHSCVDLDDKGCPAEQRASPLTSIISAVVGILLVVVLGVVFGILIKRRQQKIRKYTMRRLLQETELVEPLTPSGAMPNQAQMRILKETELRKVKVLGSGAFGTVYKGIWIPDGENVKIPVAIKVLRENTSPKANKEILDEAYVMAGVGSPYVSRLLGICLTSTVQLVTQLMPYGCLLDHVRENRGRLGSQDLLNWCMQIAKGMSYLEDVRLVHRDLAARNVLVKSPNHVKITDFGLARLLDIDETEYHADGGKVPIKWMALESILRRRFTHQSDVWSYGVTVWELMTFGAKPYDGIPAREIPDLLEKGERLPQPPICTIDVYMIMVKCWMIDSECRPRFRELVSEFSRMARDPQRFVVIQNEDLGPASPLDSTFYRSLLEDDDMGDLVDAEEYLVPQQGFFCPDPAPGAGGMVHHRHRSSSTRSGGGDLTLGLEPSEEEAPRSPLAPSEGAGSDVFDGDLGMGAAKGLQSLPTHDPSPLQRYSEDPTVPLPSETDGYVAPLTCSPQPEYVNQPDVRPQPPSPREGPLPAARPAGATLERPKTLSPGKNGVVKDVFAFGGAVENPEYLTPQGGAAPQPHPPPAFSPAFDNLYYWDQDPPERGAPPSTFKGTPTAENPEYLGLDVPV
Protocol: Inhibition of HER2 phosphorylation in Calu3 tumor cell line.
2×10^5 Calu3 cells per well were plated in a 12-well plate. After 4 days cells were starved for 16 h in DMEM(Dulbecco's Modified Eagle Medium)/0.5% FCS/1% Glutamine. During this time cells were incubated with 1 μM of a compound according to the present invention. Afterwards cells were lysed in lyses buffer containing 1% Triton, 10% Glycerol, 1 mM EGTA, 1.5 mM MgCl2, 150 mM NaCl, 50 mM Hepes pH 7.5, 1 mM PMSF, 10 μg/mL Aprotinin and […] Orthovanadate. Cell lysates were analyzed on a SDS PAGE and after transfer to a nitrocellulose membrane detected with a rabbit antibody specifically recognizing the pY 1248 in HER2 (Cell Signaling). After incubation with an anti rabbit antibody coupled to POD (Biorad) (Peroxidase available from Biorad, Munich, Germany) signals were detected by chemiluminescence (ECL,Amersham). Inhibition of HER2 phosphorylation is calculated as percentage of the DMSO treated control. This percentage is calculated according to the following formula: Inhibition in %=100-(Phosphorylated-HER2-Signal of Test Sample* 100/Phosphorylated-HER2-Signal DMSO-control).

[2] = compound concentration 1 μM, 16 h, pY 1248 in HER2, percentage of the DMSO treated control

inhibition at 1 µM [1, 2] [%]	melting point [°C]	Structure (SMILES)	percentage of inhibition of phosphorylation compared with the reference compound [1]	Percent inhibition of HER2-phosphorylation [1, 2] [%]
82.9	133 to 135	O=S(=O)(c1ccc(/C=C/c2nc(COc3ccc(CCCCn4ccnn4)cc3)co2)cc1)C(F)(F)F [example 5, 1-[4-(4-{2-[(E)-2-(-4-Trifluoromethanesulfonyl-phenyl)-vinyl]-oxazol-4-ylmethoxy}-phenyl)-butyl]-1H-[1,2,3]triazole]	higher percentage of inhibition of phosphorylation	
	172 to 174	O=S(=O)(NCCn1ccnn1)c1ccc(OCc2coc(C=Cc3ccc([S+]([O-])C(F)(F)F)cc3)n2)cc1 (stereo not shown) [Example 13, N-(2-[1,2,3] Triazol-1-yl-ethyl)-4-{2-[2-(4-trifluoromethanesulfinyl-phenyl)-vinyl]-oxazol-4-ylmethoxy}-benzenesulfonamide]		
	140 to 142	Cc1cc(OCc2coc(C=Cc3ccc(S(=O)(=O)C(F)(F)F)cc3)n2)ccc1CCCCn1ccnn1 [Example 20, 1-[4-(2-Methyl-4-{2-[2-(4-trifluoromethanesulfonyl-phenyl)-vinyl]-oxazol-4-ylmethoxy}-phenyl)-butyl]-1H-[1,2,3]triazole]		
94.4	122 to 123	[O-][S+](c1ccc(/C=C/c2nc(COc3ccc(CCCCn4ccnn4)cc3)co2)cc1)C(F)(F)F (stereo not shown) [example 4, 1-[4-(4-{2-[(E)-2-(-4-Trifluoromethanesulfinyl-phenyl)-vinyl]-oxazol-4-ylmethoxy}-phenyl)-butyl]-1H-[1,2,3]triazole]	higher percentage of inhibition of phosphorylation	

Second part, the compound before the results:

Structure (SMILES)	inhibition at 1 µM [1, 2] [%]	melting point [°C]	percentage of inhibition of phosphorylation compared with the reference compound [1]	Percent inhibition of HER2-phosphorylation [1, 2] [%]
[O-][S+](c1ccc(C=Cc2nc(COc3ccc(CCCCn4ccnc4)cc3)co2)cc1)C(F)(F)F (stereo not shown) [example 1, 4-[4-(4-Imidazol-1-yl-butyl)-phenoxymethyl]-2′-[2-(4-trifluoromethanesulfinyl-phenyl)-vinyl]-oxozole]			higher percentage of inhibition of phosphorylation	92.5
[O-][S+](c1ccc(/C=C/c2nc(COc3ccc(CCCCc4nn[nH]n4)cc3)co2)cc1)C(F)(F)F (stereo not shown) [example 7, 5-[4-(4-{2-[(E)-2-(-4-Trifluoromethanesulfinyl-phenyl)-vinyl]-oxazol-4-ylmethoxy}-phenyl)-butyl]-2H-tetrazole]	52.9		higher percentage of inhibition of phosphorylation	
[O-][S+](c1ccc(/C=C/c2nc(COc3ccc(CNCCn4ccnn4)cc3)co2)cc1)C(F)(F)F (stereo not shown) [Example 3, (2-[1,2,3]Triazol-1-yl-ethyl)-(4-{2-[(E)-2-(4-trifluoromethanesulfinyl-phenyl)-vinyl]-oxazol-4-ylmethoxy}-benzyl)-amine]		111 to 113		
[O-][S+](c1ccc(/C=C/c2nc(COc3ccc(CCCCn4ccnn4)cc3)cs2)cc1)C(F)(F)F (stereo not shown) [example 15, 1-[4-(4-{2-[(E)-2-(4-Trifluoromethanesulfinyl-phenyl)-vinyl]-thiazol-4-ylmethoxy}-phenyl)-butyl]-1H-[1,2,3]triazole]	73.6	118 to 119	higher percentage of inhibition of phosphorylation	
